pEC50: −log10 of the molar value.
Tests used:
[1] = Cytotoxicity against human MT2 cells infected with HIV1 NLRep-Rluc harbouring polymorphic 124T/125T integrase; type: toxicity, cell-based; conditions: MT2 cells infected with HIV-1 NLRep-Rluc
[2] = AUC (0 to infinity) in Sprague-Dawley rat at 5 mg/kg, po; type: ADME, organism-based; parameters: time infinity, dose 5 mg/kg, route po; conditions: in vivo
[3] = Metabolic stability in rat liver microsomes assessed as half life; type: ADME, Microsome
[4] = Toxicity in human Huh-7 cells assessed as fold change in lipid droplet formation at 10 uM incubated for 72 hrs boron-dipyrromethene staining based by high content screening (HCS) fluorescence analysis relative to control; type: cell-based; conditions: huh-7, 72 h
[5] = Metabolic stability in human liver microsomes assessed as half life; type: ADME, Microsome
[6] = Toxicity in rat H4-II-E cells assessed as fold change in lipid droplet formation at 10 uM incubated for 72 hrs boron-dipyrromethene staining based by high content screening (HCS) fluorescence analysis relative to control; type: cell-based
[7] = Metabolic stability in Sprague-Dawley rat assessed as clearance at 1 mg/kg, iv; type: ADME, organism-based; conditions: in vivo
[8] = system: Human immunodeficiency virus 1; assay: Antiviral activity against recombinant HIV1 NLRep-Rluc harbouring polymorphic 124A/125A integrase infected in human MT2 cells assessed as inhibition of virus growth in presence of fetal bovine serum by measuring luciferase activity after 5 days by Luciferase Assay; type: functional, organism-based; conditions: Human immunodeficiency virus 1, NLRep-Rluc, MT2, 120 h
[9] = Permeability of the compound at pH 5.5 by PAMPA assay; type: ADME; conditions: read-out: permeability
[10] = system: Human immunodeficiency virus 1; assay: Antiviral activity against recombinant HIV1 NLRep-Rluc harbouring polymorphic 124T/125T integrase infected in human MT2 cells assessed as inhibition of virus growth in presence of fetal bovine serum by measuring luciferase activity after 5 days by Luciferase Assay; type: functional, organism-based; conditions: Human immunodeficiency virus 1, NLRep-Rluc, MT2, 120 h
[11] = system: Human immunodeficiency virus 1; assay: Antiviral activity against recombinant HIV1 NLRep-Rluc harbouring polymorphic 124N/125A integrase infected in human MT2 cells assessed as inhibition of virus growth in presence of fetal bovine serum by measuring luciferase activity after 5 days by Luciferase Assay; type: functional, organism-based; conditions: Human immunodeficiency virus 1, NLRep-Rluc, MT2, 120 h
[12] = Oral bioavailability in Sprague-Dawley rat at 5 mg/kg; type: ADME, organism-based; conditions: in vivo
[13] = Permeability of the compound at pH 7.4 by PAMPA assay; type: ADME; conditions: read-out: permeability

Compound | CC50 [1] [nM] | AUC(0-inf) [2] [µM·h] | half-life [3] [h] | fold change (FC) [4] | half-life [5] [h] | fold change (FC) [6] | clearance [7] [mL/min/kg] | pEC50 [8] | Papp [9] [×10⁻⁶ cm/s] | pEC50 [10] | pEC50 [11] | bioavailability [12] [%] | Papp [13] [×10⁻⁶ cm/s]
Cc1nc(C)c([C@H](OC(C)(C)C)C(=O)O)c(N2CCC(C)(C)CC2)c1-c1ccc(OCCc2ccc(F)cc2)cc1 | ≥ 18200 | 14 | > 2 | 3.7 | > 2 | 4 | – | – | – | – | – | – | –
Cc1nc2c(-c3ccc4c(c3)CCN(Cc3c(C)cccc3Cl)C4)c(N3CCC(C)(C)CC3)c([C@H](OC(C)(C)C)C(=O)O)c(C)n2n1 | ≥ 3000 | 3.21 | – | – | – | – | 13 | 8.00 | 35.2 | 8.22 | 8.05 | 34 | 48.3
Cc1cn2c(C)c([C@H](OC(C)(C)C)C(=O)O)c(N3CCC(C)(C)CC3)c(-c3ccc(OCCc4ccc(F)cc4)cc3)c2n1 | ≥ 10300 | 0.269 | – | – | > 2 | – | 40.7 | 8.80 | 38.7 | 9.10 | 8.74 | 8 | 43.8
Cc1nc2c(-c3ccc4c(c3)CCN(c3ncnc5c3oc3ccccc35)C4)c(N3CCC(C)(C)CC3)c([C@H](OC(C)(C)C)C(=O)O)c(C)n2n1 | ≥ 3000 | 36.3 | – | 3.9 | – | 3.6 | 2.8 | 8.28 | 101 | 8.41 | 8.35 | 83 | 75.2
Cc1c([C@H](OC(C)(C)C)C(=O)O)c(N2CCC(C)(C)CC2)c(-c2ccc3c(c2)CCN(c2ncnc4c2oc2ccccc24)C3)c2nccn12 | ≥ 3000 | 12.1 | – | – | – | – | 1 | 8.35 | – | 8.54 | 8.34 | 9 | 66.3
Cc1c([C@H](OC(C)(C)C)C(=O)O)c(N2CCC(C)(C)CC2)c(-c2ccc(OCCc3ccc(F)cc3)cc2)c2cncn12 | ≥ 18200 | – | – | – | – | – | – | 7.47 | – | 7.84 | 7.39 | – | –
Cc1c([C@H](OC(C)(C)C)C(=O)O)c(N2CCC(C)(C)CC2)c(-c2ccc(OCCc3ccc(F)cc3)cc2)c2cccn12 | ≥ 18200 | – | – | – | – | – | – | 7.42 | – | 7.56 | 7.49 | – | –
Cc1c([C@H](OC(C)(C)C)C(=O)O)c(N2CCC(C)(C)CC2)c(-c2ccc(OCCc3ccc(F)cc3)cc2)c2nc(C(C)C)cn12 | ≥ 10300 | – | – | – | – | – | – | 8.54 | – | 8.92 | 8.51 | – | –
Cc1c([C@H](OC(C)(C)C)C(=O)O)c(N2CCC(C)(C)CC2)c(-c2ccc(OCCc3ccc(F)cc3)cc2)c2nc(C3CC3)cn12 | ≥ 10300 | – | – | – | – | – | – | 7.97 | – | 8.38 | 7.95 | – | –
Cc1c([C@H](OC(C)(C)C)C(=O)O)c(N2CCC(C)(C)CC2)c(-c2ccc3c(c2)CCN(c2ncnc4c2oc2ccccc24)C3)c2cnnn12 | ≥ 3000 | 21.7 | – | 2.7 | – | 1.3 | 1.9 | 8.40 | – | 8.42 | 8.19 | 33 | 79
Cc1c([C@H](OC(C)(C)C)C(=O)O)c(N2CCC(C)(C)CC2)c(-c2ccc(OCCc3ccc(F)cc3)cc2)c2nc(CC(C)C)cn12 | ≥ 10300 | – | > 2 | – | > 2 | – | 44.6 | 8.46 | – | 8.92 | 8.59 | – | –
Cc1c([C@H](OC(C)(C)C)C(=O)O)c(N2CCC(C)(C)CC2)c(-c2ccc3c(c2)CCN(c2ncnc4c2oc2ccccc24)C3)c2ncnn12 | ≥ 3000 | 30.7 | – | – | – | – | 1.5 | 8.30 | – | 8.54 | 8.29 | 37 | 47.4
Cc1c([C@H](OC(C)(C)C)C(=O)O)c(N2CCC(C)(C)CC2)c(-c2ccc(OCCc3ccc(F)cc3)cc2)c2ncnn12 | ≥ 18200 | 3.59 | > 2 | 2.7 | > 2 | 1.6 | 11.9 | 8.34 | 160 | 8.62 | 8.40 | 28 | 65.4
Cc1c([C@H](OC(C)(C)C)C(=O)O)c(N2CCC(C)(C)CC2)c(-c2ccc(OCCc3ccc(F)cc3)cc2)c2cnnn12 | ≥ 18200 | – | – | – | – | – | – | 7.94 | – | 8.24 | 7.83 | – | –
Cc1c([C@H](OC(C)(C)C)C(=O)O)c(N2CCC(C)(C)CC2)c(-c2ccc(OCCc3ccc(F)cc3)cc2)c2nc(C(F)(F)F)cn12 | ≥ 10300 | – | – | – | – | – | – | 7.98 | – | 8.28 | 7.91 | – | –
Cc1c([C@H](OC(C)(C)C)C(=O)O)c(N2CCC(C)(C)CC2)c(-c2ccc(OCCc3ccc(F)cc3)cc2)c2nccn12 | ≥ 10300 | 1.48 | > 2 | 3.3 | > 2 | 1.9 | 12.5 | 8.77 | 49.8 | 8.96 | 8.72 | 13 | 41
Cc1nc2c(-c3ccc(OCCc4ccc(F)cc4)cc3)c(N3CCC(C)(C)CC3)c([C@H](OC(C)(C)C)C(=O)O)c(C)n2n1 | ≥ 40000 | 2.71 | > 2 | – | > 2 | – | 20.1 | 8.66 | – | 8.89 | 8.57 | 39 | –
Cc1c([C@H](OC(C)(C)C)C(=O)O)c(N2CCC(C)(C)CC2)c(-c2ccc(OCCc3ccc(F)cc3)cc2)c2nncn12 | ≥ 18200 | – | – | – | – | – | – | 7.80 | – | 7.92 | 7.86 | – | –
Cc1nc2c(C)c(N3CCC(C)(C)CC3)c([C@H](OC(C)(C)C)C(=O)O)c(C)n2n1 | ≥ 3000 | – | – | – | – | – | – | 5.92 | – | 6.68 | 6.27 | – | –
Cc1c([C@H](OC(C)(C)C)C(=O)O)c(N2CCC(C)(C)CC2)c(-c2ccc(OCCc3ccc(F)cc3)cc2)c2ccnn12 | ≥ 18200 | – | – | – | – | – | – | 7.45 | – | 7.89 | 7.58 | – | –
CCc1cn2c(C)c([C@H](OC(C)(C)C)C(=O)O)c(N3CCC(C)(C)CC3)c(-c3ccc(OCCc4ccc(F)cc4)cc3)c2n1 | ≥ 10300 | – | > 2 | – | > 2 | – | 57.3 | 8.74 | – | 9.00 | 8.62 | – | 34.3
